The record followed here is patent US20230321108A1, “UNIT DOSAGE COMPOSITION OF AKT INHIBITOR” (NANJING CHIA TAI TIANQING PHARMACEUTICAL CO., LTD., priority 2020, published 2023).

Assay [1] deals with LnCap human prostate cancer. Put plainly: Subcutaneous transplantation model of LnCap human prostate cancer. In kind it is in vivo, NCG mice. To be noted: for T/C / TGI / TV on the day of the end of the experiment: 18 days; for TV on the day of the end of the experiment / TV on the day of grouping and administration: mean ± SEM; for TV on the day of grouping and administration: baseline. From the text:
NCG mice, male, 8-10-week-old (when tumor cells were inoculated into the mice). […] LnCap cells in exponential growth phase were harvested and resuspended in PBS to a concentration suitable for subcutaneous tumor inoculation into mice. […] A formula for calculating a tumor volume: long diameter × short diameter^2 / 2. [table] […] Solvent: the solvent was a mixed solvent of PG, PEG400, and water, PG: PEG400: water=(20-40): (20-30): (30-50) (v: v: v). Any ratio within the range can be used. [table] All experimental results are shown as mean tumor volume ± SEM (standard error of mean). Whether there is a significant difference between the treatment group and the control group in terms of tumor volume was determined by the independent samples T test. All data were analyzed by using SPSS 18.0.

A further assay deals with AKT3 (Homo sapiens (Human), UniProt Q9Y243). Briefly: AKT kinase activity assay (HTRF kinEASE TK), AKT3. In kind it is biochemical. The note with it: 10 nM ATP, read-out: AKT3 enzyme activity IC50. How it is done:
The substrate and ATP were respectively diluted with the 1× kinase reaction buffer to a concentration 5 times the reaction concentration.
A 5× enzyme working solution was prepared from the 1× kinase reaction buffer.
A 4× streptavidin-XL665 working solution was prepared from the assay buffer.
4× europium-labeled tyrosine kinase substrate antibody working solution The europium-labeled tyrosine kinase substrate antibody was 100-fold diluted with the assay reaction buffer to obtain a working solution.
After all the reagents were prepared according to the above method, except for the enzyme, the reagents were equilibrated to the room temperature and loaded.
b) 2 µL of previously prepared TK-biotin substrate solution (the concentration of the substrate for enzyme screening is shown in Table 1) was placed in each reaction well.
The plate was sealed with a sealing film, and the reaction solution was mixed until uniform and incubated at the room temperature for 10 min to allow the compound to fully react with and bind to the enzyme.
d) 2 µL of ATP solution was placed in each reaction well to initiate a kinase reaction (the concentration of ATP for enzyme screening and reaction time are shown in Table 1).
e) 5 min before the kinase reaction was completed, an assay solution was prepared.
f) After the kinase reaction was completed, 5 µL of diluted streptavidin-XL665 was placed in each reaction well and mixed with the reaction solution until uniform, and the diluted europium-labeled tyrosine kinase substrate antibody assay solution was immediately added.
In general terms: In TR-FRET formats the signal depends on donor and acceptor labels being close together.

A further assay has as its target AKT1 (Homo sapiens (Human), UniProt P31749). Put plainly: AKT kinase activity assay (HTRF kinEASE TK), AKT1. To be noted: 2 µM ATP, read-out: AKT1 enzyme activity IC50. In kind it is biochemical.

The term T/C denotes the ratio of treated to control. What is called IC50 is the concentration needed to halve the response being measured.

Each structure is given as a SMILES string.

Chain of AKT3 (Q9Y243 whole entry): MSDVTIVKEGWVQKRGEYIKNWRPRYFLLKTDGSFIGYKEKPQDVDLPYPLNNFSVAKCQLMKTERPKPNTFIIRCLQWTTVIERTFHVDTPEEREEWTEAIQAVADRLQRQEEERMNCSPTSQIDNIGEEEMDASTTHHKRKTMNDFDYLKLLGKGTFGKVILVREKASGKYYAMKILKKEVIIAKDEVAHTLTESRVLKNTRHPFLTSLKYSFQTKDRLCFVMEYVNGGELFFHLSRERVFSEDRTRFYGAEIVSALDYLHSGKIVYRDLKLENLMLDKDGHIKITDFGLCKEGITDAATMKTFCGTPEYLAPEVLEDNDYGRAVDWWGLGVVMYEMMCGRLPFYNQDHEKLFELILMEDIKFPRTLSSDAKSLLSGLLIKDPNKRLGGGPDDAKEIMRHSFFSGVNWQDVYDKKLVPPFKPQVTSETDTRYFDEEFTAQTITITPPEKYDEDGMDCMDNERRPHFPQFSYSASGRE
Chain of AKT1 (P31749 whole entry): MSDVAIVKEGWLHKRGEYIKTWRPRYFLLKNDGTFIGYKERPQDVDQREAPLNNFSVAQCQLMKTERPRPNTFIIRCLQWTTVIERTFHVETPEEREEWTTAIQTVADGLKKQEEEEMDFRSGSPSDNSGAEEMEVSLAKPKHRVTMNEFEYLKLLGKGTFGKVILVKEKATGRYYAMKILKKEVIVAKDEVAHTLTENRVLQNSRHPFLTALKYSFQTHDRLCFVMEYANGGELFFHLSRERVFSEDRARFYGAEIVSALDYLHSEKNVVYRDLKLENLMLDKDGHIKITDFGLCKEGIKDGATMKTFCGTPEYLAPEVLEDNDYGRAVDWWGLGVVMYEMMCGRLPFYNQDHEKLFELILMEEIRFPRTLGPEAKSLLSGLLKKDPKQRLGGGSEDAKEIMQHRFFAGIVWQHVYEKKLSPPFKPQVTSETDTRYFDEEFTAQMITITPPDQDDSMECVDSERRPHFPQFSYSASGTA

Regarding `CC(C)NC[C@@H](C(=O)N1CCN(c2ncnc3c2[C@H](C)CC(=O)N3)[C@H]2C[C@H]21)c1ccc(Cl)cc1` [Isomer 2 of Example 1, (R)-4-((1S,6R)-5-((S)-2-(4-chlorophenyl)-3-(isopropylamino)propionyl)-2,5-diazabicyclo[4.1.0]heptan-2-yl)-5-methyl-5,8-dihydropyrido[2,3-d]pyrimidin-7(6H)-one], in assay [1] (12.5 mg/kg QD po), the T/C is 41.57%; the TGI is reported as 58.43%; the “TV on the day of the end of the experiment” value (“TV … of the experiment” for short) amounted to 401.07±80.17 mm^3; the “TV on the day of grouping and administration” value is reported as 177.76±6.67 mm^3. Moreover, in assay [1] (25 mg/kg QD po), the T/C is recorded as 15.90%; the TGI was found to be 84.10%; the “TV … of the experiment” value was determined as 153.42±23.11 mm^3; the “TV on the day of grouping and administration” value is recorded as 177.80±6.71 mm^3. Besides, in assay [1] (50 mg/kg QD po), the T/C is listed as 4.52%; the TGI came out at 95.48%; the “TV … of the experiment” value stood at 43.64±16.62 mm^3; the “TV on the day of grouping and administration” value came to 177.78±6.64 mm^3.
As for `C[C@@H]1CC(=O)Nc2ncnc(N3CCN(C(=O)[C@H](CNC4CC4)c4ccc(Cl)cc4)[C@H]4C[C@H]43)c21` (single isomer, unassigned) [Isomer 1 of Example 1], the 50% inhibitory concentration (IC50) at AKT3 came out at 13 nM.
As to `CC(C)NC[C@@H](C(=O)N1CCN(c2ncnc3c2[C@H](C)OC(=O)N3)[C@H]2C[C@H]21)c1ccc(Cl)cc1` (single isomer, unassigned) [Isomer 2 of Example 3], the figures for the IC50 at AKT3 and at AKT1 were 89 nM and 613 nM, respectively.
With `C[C@@H]1CC(=O)Nc2ncnc(N3CCN(C(=O)[C@H](CNC4CC4)c4ccc(Cl)cc4)[C@@H]4C[C@@H]43)c21` [Isomer 2 of Example 2, (R)-4-((1S,6R)-5-((S)-2-(4-chlorophenyl)-3(cyclopropylamino)propionyl)-2,5-diazabicyclo[4.1.0]heptan-2-yl)-5-methyl-5,8-dihydropyrido[2,3-d]pyrimidin-7(6H)-one], in assay [1] (50 mg/kg QD po), the T/C is listed as 19.44%, the TGI was 80.56% and the “TV … of the experiment” value is recorded as 187.49±22.88 mm^3.
As to `CC(C)NC[C@@H](C(=O)N1CCN(c2ncnc3c2[C@H](C)OC(=O)N3)[C@H]2C[C@H]21)c1ccc(Cl)cc1` (single isomer, unassigned; isomer 4) [Isomer 4 of Example 3], the IC50 on AKT3 was 0.12 nM. Moreover, in assay [1] (50 mg/kg QD po), the T/C came to 10.29%; the TGI was found to be 89.71%; the “TV … of the experiment” value worked out at 99.30±40.55 mm^3; the “TV on the day of grouping and administration” value amounted to 177.90±10.06 mm^3. Besides, the “tumor inhibiting effect in the in vivo experiment” value in assay [1] (result in words) is listed as “obvious tumor inhibiting effect”. Besides, the IC50 on AKT1 was found to be 0.6 nM.
